The assay deals with T1, PcCDHTr (Phanerodontia chrysosporium, UniProt Q01738).
T1 construct: gene CDH-1; full two-domain flavocytochrome, native signal peptide (cleaved), untagged, secreted by Trichoderma reesei delta-xyr1; 83 kDa by SDS-PAGE
Kind of assay: TCA precipitation, released FAD by A450. It is filed as binding. The settings on record: co-purified cofactor.

T1 sequence (Q01738 19-773): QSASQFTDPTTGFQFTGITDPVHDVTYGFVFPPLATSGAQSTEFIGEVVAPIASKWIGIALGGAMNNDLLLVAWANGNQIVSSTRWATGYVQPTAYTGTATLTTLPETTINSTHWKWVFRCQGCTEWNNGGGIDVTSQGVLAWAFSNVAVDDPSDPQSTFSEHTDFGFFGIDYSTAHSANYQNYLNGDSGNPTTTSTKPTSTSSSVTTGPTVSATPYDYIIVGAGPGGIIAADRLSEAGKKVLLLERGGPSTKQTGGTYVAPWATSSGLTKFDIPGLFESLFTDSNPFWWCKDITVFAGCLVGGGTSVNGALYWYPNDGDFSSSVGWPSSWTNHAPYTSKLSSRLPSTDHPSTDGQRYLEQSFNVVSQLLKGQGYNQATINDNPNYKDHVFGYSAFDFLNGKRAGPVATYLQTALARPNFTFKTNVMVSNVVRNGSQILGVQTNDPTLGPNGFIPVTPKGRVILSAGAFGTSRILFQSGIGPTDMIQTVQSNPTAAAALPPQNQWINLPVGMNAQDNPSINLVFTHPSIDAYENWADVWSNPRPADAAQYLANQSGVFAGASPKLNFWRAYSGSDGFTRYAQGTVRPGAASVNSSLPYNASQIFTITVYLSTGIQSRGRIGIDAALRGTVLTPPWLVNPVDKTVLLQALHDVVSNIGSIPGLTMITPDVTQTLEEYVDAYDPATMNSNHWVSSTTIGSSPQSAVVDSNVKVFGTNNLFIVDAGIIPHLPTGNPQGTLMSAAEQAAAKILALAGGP

For the compound `Cc1cc2nc3c(=O)[nH]c(=O)nc-3n(C[C@H](O)[C@H](O)[C@H](O)COP(=O)(O)OP(=O)(O)OC[C@H]3O[C@@H](n4cnc5c(N)ncnc54)[C@H](O)[C@@H]3O)c2cc1C` [FAD], the FAD occupancy is recorded as 70%.

(Values after article PMC7789494 (Microbial Cell Factories, 2021).)
